Laboratory results reported in patent US20140342914A1, “Method of Plant Growth with Bifenthrin” (priority 2013, published 2014).

Test system: Corn seeds
Test: Corn seedling growth enhancement, in-furrow application at different rates (Example 2)
Format: in vivo
Conditions: average of 8 replications
Text: Ten corn seeds (Pioneer variety 33M53, treated with PONCHO® 250 Insecticide) were evenly spaced in a single, 2 cm deep, furrow in a planter box (25.5 cm by 11.5 cm) containing steam treated loam soil (pH 6.4, 4.3% organic matter. An aqueous suspension of CAPTURE® LFR Insecticide (17.5% bifenthrin) was sprayed as a T-band in-furrow application onto the uncovered seeds at a rate of 269 g ai/ha using a DeVries overhead track sprayer at a pressure of 40 psi and an application volume of 200 l/ha. The seeds were covered with soil and the planter boxes placed onto a lab cart with overhead lighting set at 14 hours on and 10 hours off and a room temperature of 21° C. Three replicate planter boxes (total of 30 seeds) were treated and three control planter boxes to which no CAPTURE® Insecticide was applied were included in the test. Each planter box was watered with 146 mL of tap water and re-watered with 50 mL of tap water along the furrow at 4 days after treatment (DAT). At four DAT there were 19 emerged seedlings in the treated planter boxes and 16 emerged seedlings in the untreated planter boxes. At five DAT all seeds had emerged and the seedlings were removed from the soil and the roots were gently rinsed in tap water to remove the soil. The seedlings were placed onto paper and the roots and shoots were measured from the seed to the tip of the tallest leaf and from the seed to the tip of the longest root and each seedling was weighed. Table 1 below summarizes the average shoot height; root length and seedling wet weight of the treated and untreated seeds.
In a manner similar to Example 1, Corn seeds were treated in-furrow with different rates of CAPTURE® LFR or test solutions of technical bifenthrin (96% purity) dissolved in acetone and diluted with distilled water containing 0.1% Tween® 20 (Polyoxylethylene-sorbitan monolaurate available from SigmaAldrich). There were 8 replications of each treatment including the untreated control. Table 2 below summarizes the average shoot height, root length and seedling weight of the treated and untreated seeds.

With `Cc1c(COC(=O)[C@@H]2[C@H](/C=C(\Cl)C(F)(F)F)C2(C)C)cccc1-c1ccccc1` (racemic) [Technical Bifenthrin, 2-methylbiphenyl-3-ylmethyl (Z)-(1RS)-cis-3-(2-chloro-3,3,3-trifluoroprop-1-enyl)-2,2-dimethyl cyclopropanecarboxylate] the “Root Length” value (4.68 g ai/ha in-furrow) was 20.8 cm, the “Seedling Weight” value (4.68 g ai/ha in-furrow) was 1.1 gm and the “Shoot Height” value (4.68 g ai/ha in-furrow) was 9.2 cm. For the same molecule, the “Root Length” value (18.75 g ai/ha in-furrow) was 20.7 cm, the “Seedling Weight” value (18.75 g ai/ha in-furrow) was 1.1 gm and the “Shoot Height” value (18.75 g ai/ha in-furrow) was 9.5 cm. The “Root Length” value (75 g ai/ha in-furrow) was 21.5 cm, the “Seedling Weight” value (75 g ai/ha in-furrow) was 1.2 gm and the “Shoot Height” value (75 g ai/ha in-furrow) was 9.6 cm. The “Root Length” value (300 g ai/ha in-furrow) was 21.8 cm, the “Seedling Weight” value (300 g ai/ha in-furrow) was 1.1 gm and the “Shoot Height” value (300 g ai/ha in-furrow) was 9.5 cm. For the same molecule, the “Root Length” value (1200 g ai/ha in-furrow) was 22.3 cm, the “Seedling Weight” value (1200 g ai/ha in-furrow) was 1.2 gm and the “Shoot Height” value (1200 g ai/ha in-furrow) was 9.9 cm.
